pIC50: −log10 of the molar value.
Assays:
[1] = target: T1, human GnRH receptor (Homo sapiens, UniProt P30968); test: Radioligand binding, 125I-GnRH-A displacement, membranes of HEK 293 cells with human GnRH receptor; conditions: read-out: hGnRH IC50
T1 construct: expressed in transfected cells; host or cells: HEK 293 (hGnRH-R/293, from Dr. Stuart Sealfon)
T1 sequence (P30968 1-328): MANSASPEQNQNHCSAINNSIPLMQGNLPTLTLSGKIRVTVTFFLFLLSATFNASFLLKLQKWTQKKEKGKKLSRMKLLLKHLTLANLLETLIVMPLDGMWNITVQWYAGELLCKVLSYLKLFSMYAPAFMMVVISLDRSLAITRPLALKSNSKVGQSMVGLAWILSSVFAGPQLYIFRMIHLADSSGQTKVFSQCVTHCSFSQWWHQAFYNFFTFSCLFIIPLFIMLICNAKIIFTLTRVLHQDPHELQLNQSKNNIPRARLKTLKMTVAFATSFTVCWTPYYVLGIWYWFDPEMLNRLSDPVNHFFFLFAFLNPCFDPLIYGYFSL
Procedure, shortened: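 Bound tracer was separated by filtration through polyethyleneimine-soaked GF/C filters and counted by liquid scintillation. IC50 from curve fitting; other species were tested under the same conditions.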

[2] = target: T2, rat GnRH receptor (Rattus norvegicus, UniProt P30969); test: Radioligand binding, 125I-GnRH-A, rat pituitary membranes; parameters: membranes were prepared from rat pituitary; from tissue; host or cells: rat pituitary; conditions: read-out: rGnRH IC50
T2 sequence (P30969 1-327): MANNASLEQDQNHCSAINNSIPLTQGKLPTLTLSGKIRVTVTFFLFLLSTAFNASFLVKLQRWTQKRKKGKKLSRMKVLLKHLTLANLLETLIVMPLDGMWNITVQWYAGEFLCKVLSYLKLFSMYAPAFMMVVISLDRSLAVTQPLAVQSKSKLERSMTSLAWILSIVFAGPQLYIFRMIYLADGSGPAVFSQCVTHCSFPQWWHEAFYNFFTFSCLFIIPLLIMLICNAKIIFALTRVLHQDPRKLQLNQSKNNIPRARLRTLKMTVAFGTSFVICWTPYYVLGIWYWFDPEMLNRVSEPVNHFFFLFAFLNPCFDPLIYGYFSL
Procedure: All compounds were diluted in 1% DMSO (final assay concentration) in binding assay buffer. […] Reactions were terminated by rapid filtration onto 96-well Packard GF/C filters soaked in 0.1% polyethyleneimine. Filters were washed three times with PBS buffer, dried and counted on a Packard Topcount by liquid scintillation counting.
Assay conditions were identical for assessing compound activities at other species. […] IC50 values for control peptides and test compounds were calculated utilizing GraphPad Prism™ software.
The reaction mixture was vortexed and incubated for 1 min at room temperature. After one min, the mixture was vortexed and allowed to incubate for an additional minute. 2 ml of 0.5 M acetic acid/1% BSA was added to the reaction tube and the mixture was added to a C18 Sep-Pak cartridge. The cartridge was washed with subsequent washes of 5 ml H2O and 5 ml 0.5M acetic acid and then eluted with 5×1 ml of 60% CH3CN/40% 0.5M acetic acid. The eluate was diluted with 3× volume of HPLC buffer A (0.1% TFA in H2O) and loaded onto a C18 column. […] The radioactive fractions (750 ed/fraction) are collected into clean polypropylene tubes containing 100 μl of 10% BSA. Fractions were assessed for biological activity by radioligand binding.

[3] = target: T3, mouse GnRH receptor (Mus musculus, UniProt Q01776); test: Radioligand binding, 125I-GnRH-A, 293 cells expressing mouse GnRH receptors; conditions: read-out: mGnRH IC50
T3 construct: expressed in transfected cells; host or cells: 293 cells
T3 sequence (Q01776 1-327): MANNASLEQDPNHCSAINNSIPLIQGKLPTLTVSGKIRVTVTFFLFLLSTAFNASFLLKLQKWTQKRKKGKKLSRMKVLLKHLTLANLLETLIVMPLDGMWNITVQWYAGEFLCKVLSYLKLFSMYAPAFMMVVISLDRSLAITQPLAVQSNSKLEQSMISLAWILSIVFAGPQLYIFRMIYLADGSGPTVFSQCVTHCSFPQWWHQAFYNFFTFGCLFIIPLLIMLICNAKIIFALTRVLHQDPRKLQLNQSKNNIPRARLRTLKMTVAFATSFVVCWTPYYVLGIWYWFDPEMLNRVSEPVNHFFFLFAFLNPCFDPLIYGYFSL
Procedure, shortened: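 Bound label captured on 0.1% polyethyleneimine-treated GF/C filters, washed three times with PBS, counted. IC50 derived; identical set-up for every species.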

pIC50 [1]	pIC50 [2]	pIC50 [3]	SMILES
5.93	6.41		Cc1cc2c(cc1Cc1ccc(C(=O)NCc3cccc(CNC(=O)C(F)(F)F)c3)o1)C(C)(C)CCC2(C)C [Compound 116]
	5.15		Cc1cc(NS(=O)(=O)c2ccc(NC(=O)c3ccc(Cc4cc5c(cc4C)C(C)(C)CCC5(C)C)o3)cc2)no1 [Compound 114]
6.82	7.46	7.19	Cc1cc2c(cc1Cc1ccc(C(=O)NCc3ccc(CNc4nccc(NCC5CCCO5)n4)cc3)o1)C(C)(C)CCC2(C)C (stereo not shown) [Compound 141]
6.20	5.76		Cc1cc2c(cc1Cc1ccc(C(=O)NCC3CCC(CNc4ncccn4)CC3)o1)C(C)(C)CCC2(C)C (stereo not shown) [Compound 111]
5.77	5.77		Cc1cc(C)nc(NS(=O)(=O)c2ccc(NC(=O)c3ccc(Cc4cc5c(cc4C)C(C)(C)CCC5(C)C)o3)cc2)n1 [Compound 97]
5.10	6.11		COc1cc(C)c(Cc2ccc(C(=O)NCc3cnc(C)cn3)o2)cc1OC [Compound 84]
	5.89		Cc1cc2c(cc1Cc1ccc(C(=O)Nc3cccnc3)o1)C(C)(C)CCC2(C)C [Compound 78]
	5.32		Cc1cc2c(cc1Cc1ccc(C(=O)N3CCC(Nc4ccnc(NCC5CCCO5)n4)C3)o1)C(C)(C)CCC2(C)C (stereo not shown) [Compound 94.5]
7.10	6.66	7.08	COc1ccc(OC)c(NC(=O)c2ccc(Cc3cc4c(cc3C)C(C)(C)CCC4(C)C)o2)c1 [Compound 98]
6.06	5.28		Cc1cc2c(cc1Cc1ccc(C(=O)NCC3CCNCC3)o1)C(C)(C)CCC2(C)C [Compound 76]
5.93	6.01		Cc1cc2c(cc1Cc1ccc(C(=O)Nc3ccc(C(N)=O)cc3)o1)C(C)(C)CCC2(C)C [Compound 102]
5.10	5.26		Cc1cc2c(cc1Cc1ccc(C(=O)NCC3CCC(CNc4nccc(Cl)n4)CC3)o1)C(C)(C)CCC2(C)C (stereo not shown) [Compound 93]
	5.25		Cc1cnc(CNC(=O)c2ccc(Cc3c(C)cc(C)c(Br)c3C)o2)cn1 [Compound 80]
	5.09		Cc1cc(C)c(Cc2ccc(C(=O)NCc3cnc(C)cn3)o2)c(C)c1 [Compound 81]
5.59	5.69		Cc1cc2c(cc1Cc1ccc(C(=O)N3CCC(CNc4nccc(NCC5CCCO5)n4)CC3)o1)C(C)(C)CCC2(C)C (stereo not shown) [Compound 86.5]
6.14	5.90		COCCCNC(=O)c1ccc(Cc2cc3c(cc2C)C(C)(C)CCC3(C)C)o1 [Compound 122]
	< 5.00		Cc1cc2c(cc1Cc1ccc(C(=O)NC3CCC(NC(=O)C(F)(F)F)CC3)o1)C(C)(C)CCC2(C)C (stereo not shown) [Compound 110]
6.60	6.43		Cc1cc2c(cc1Cc1ccc(C(=O)NCc3ccc(-c4csnn4)cc3)o1)C(C)(C)CCC2(C)C [Compound 79]
< 5.00	5.07		Cc1ccc(C)c(Cc2ccc(C(=O)NCc3cnc(C)cn3)o2)c1 [Compound 77]
	5.11		Cc1cc2c(cc1Cc1ccc(C(=O)NC3CCC(N)CC3)o1)C(C)(C)CCC2(C)C (stereo not shown) [Compound 112]
5.74	5.52		Cc1cc2c(cc1Cc1ccc(C(=O)NC3CCN(c4nccc(NCC5CCCO5)n4)C3)o1)C(C)(C)CCC2(C)C (stereo not shown) [Compound 117]
6.21	5.76		Cc1cc2c(cc1Cc1ccc(C(=O)NCCCN3CCOCC3)o1)C(C)(C)CCC2(C)C [Compound 83]
6.57	5.48		Cc1cc2c(cc1Cc1ccc(C(=O)NCC3CCN(C(=O)OC(C)(C)C)CC3)o1)C(C)(C)CCC2(C)C [Compound 87]

pIC50 [1]	pIC50 [2]	pIC50 [3]	SMILES
6.42	6.37		COC(=O)c1cc(OC)c(OC)c(OC)c1NC(=O)c1ccc(Cc2cc3c(cc2C)C(C)(C)CCC3(C)C)o1 [Compound 118]
	5.86		COc1ccc(CNC(=O)c2ccc(Cc3cc4c(cc3C)C(C)(C)CCC4(C)C)o2)c2ccccc12 [Compound 129]
< 5.00	< 5.00		Cc1cc2c(cc1Cc1ccc(C(=O)Nc3ccc(S(=O)(=O)Nc4ccc(Cl)nn4)cc3)o1)C(C)(C)CCC2(C)C [Compound 107]
	< 5.00		Cc1cc2c(cc1Cc1ccc(C(=O)NC[C@H]3CC[C@H](c4nc5ccccc5[nH]4)CC3)o1)C(C)(C)CCC2(C)C [Compound 85]
	5.56		Cc1cc2c(cc1Cc1ccc(C(=O)Nc3ccc(C(N)=O)cc3)o1)C(C)(C)CCC2(C)C [Compound 108]
	5.94		Cc1cc2c(cc1Cc1ccc(C(=O)NCc3ccccc3-c3ccccc3)o1)C(C)(C)CCC2(C)C [Compound 67]
6.60	5.56		Cc1cc2c(cc1Cc1ccc(C(=O)NCC3CCC(CNC(=O)C(F)(F)F)CC3)o1)C(C)(C)CCC2(C)C (stereo not shown) [Compound 89]
6.23	5.22		Cc1cc2c(cc1Cc1ccc(C(=O)NCC3CCCN(C(=O)OC(C)(C)C)C3)o1)C(C)(C)CCC2(C)C (stereo not shown) [Compound 100]
5.70	6.29		Cc1cc2c(cc1Cc1ccc(C(=O)NCc3cccc(CNc4ncccn4)c3)o1)C(C)(C)CCC2(C)C [Compound 106]
< 5.00	< 5.00		Cc1cc2c(cc1Cc1ccc(C(=O)Nc3ccc(NC(=O)OC(C)(C)C)cc3)o1)C(C)(C)CCC2(C)C [Compound 101]
	5.90		Cc1cc2c(cc1Cc1ccc(C(=O)NCc3ccc(CNC(=O)C(F)(F)F)cc3)o1)C(C)(C)CCC2(C)C [Compound 104]
6.44	5.46		Cc1cc2c(cc1Cc1ccc(C(=O)NCC3CCN(c4ccnc(Cl)n4)CC3)o1)C(C)(C)CCC2(C)C [Compound 103]
5.52	5.80		Cc1cc2c(cc1Cc1ccc(C(=O)N3CCC(Nc4nccc(NCC5CCCO5)n4)CC3)o1)C(C)(C)CCC2(C)C (stereo not shown) [Compound 94.2]
6.47	6.52		Cc1cc2c(cc1Cc1ccc(C(=O)NCc3ccc(CN)cc3)o1)C(C)(C)CCC2(C)C [Compound 113]
	6.12		Cc1cc2c(cc1Cc1ccc(C(=O)NC[C@@H](O)c3ccccc3)o1)C(C)(C)CCC2(C)C [Compound 124]
6.25	5.90		Cc1cc2c(cc1Cc1ccc(C(=O)NCC3CCC(CNCc4c(C)noc4C)CC3)o1)C(C)(C)CCC2(C)C (stereo not shown) [Compound 90]
5.52	6.23		Cc1cc2c(cc1Cc1ccc(C(=O)NCc3ccc(F)cc3)o1)C(C)(C)CCC2(C)C [Compound 130]
	5.04		Cc1cc2c(cc1Cc1ccc(C(=O)NC3CCNC3)o1)C(C)(C)CCC2(C)C (stereo not shown) [Compound 82]
6.29	6.04		Cc1cc2c(cc1Cc1ccc(C(=O)NCC3CCCC(CN)C3)o1)C(C)(C)CCC2(C)C (stereo not shown) [Compound 127]
5.70	5.55		Cc1cc2c(cc1Cc1ccc(C(N)=O)o1)C(C)(C)CCC2(C)C [AXC- 06675]
	5.63		Cc1cc2c(cc1Cc1ccc(C(=O)NC3CCN(C(=O)OC(C)(C)C)C3)o1)C(C)(C)CCC2(C)C (stereo not shown) [Compound 88]
< 5.00	< 5.00		Cc1cc2c(cc1Cc1ccc(C(=O)Nc3cncc(COC(=O)c4ccc(Cc5cc6c(cc5C)C(C)(C)CCC6(C)C)o4)c3)o1)C(C)(C)CCC2(C)C [Compound 120]
5.10	6.29		CCc1cccc(CC)c1NC(=O)c1ccc(Cc2cc3c(cc2C)C(C)(C)CCC3(C)C)o1 [Compound 86]

Source: patent publication US7101878B1 (Agouron Pharmaceuticals, Inc., priority 1998, dated 2006)
